Data published in patent US7713963B2, “Acylated indanyl amines and their use as pharmaceuticals” (sanofi-aventis Deutschland GmbH, priority 2001, dated 2010).

What was measured:
eNOS promoter = experiment: Activation of eNOS transcription (eNOS promoter-luciferase reporter gene assay); type: cell-based, human; settings: Homo sapiens, 18 h, 18 h incubation; for maximal fold induction: maximum transcription induction ratio (luciferase with compound / solvent alone), read-out: TIR (max); for EC50: Endothelial cell, EC50 of transcription induction ratio, determined graphically, human endothelial cell line, read-out: EC-50
Description: Measurement of activation of eNOS transcription Activation of eNOS transcription was measured as described in detail in Li et al. “Activation of protein kinase C alpha and/or epsilon enhances transcription of the human endothelial nitric oxide synthase gene”, Mol. Pharmacol. 1998; 53: 630-637. Briefly, a 3.5 kB long fragment 5′ of the starting codon of the eNOS gene was cloned, sequenced and cloned in firefly luciferase expression plasmids to monitor activation of the eNOS promoter by reporter gene activity. A human endothelial cell line stable transfected and expressing this promoter-reporter construct was used for compound testing. Cells were incubated for 18 h with compounds. All compounds were dissolved in sterile DMSO. A final concentration of 0.5% DMSO in complete medium was allowed. Induction of reporter gene expression in these cells was measured using a standard luciferase assay system (Promega, Cat. No E150) according to the manufacturer's instructions. Luciferase induction in cells incubated with compounds were compared to those incubated with solvent alone. The ratio of both activities (transcription induction ratio, TIR) was plotted as a function of compound concentration. […] EC50 values of transcription induction ratios as a function of compound concentration were determined graphically.

| EC50 (eNOS promoter) | melting point | Structure (SMILES) | maximal fold induction (eNOS promoter) |
| --- | --- | --- | --- |
| 30 µM | 157 °C | O=C(NC1Cc2cccc(-c3ccc(F)cc3)c2C1)c1ccc(F)cc1 (centres unmarked) [Compound 398B, 4-FLUORO-N-[4-(4-FLUOROPHENYL)-INDAN-2-YL]-BENZAMIDE] | 3.46 |
|  | 167 °C | O=C(NC1Cc2ccc([N+](=O)[O-])cc2C1)c1ccc(F)cc1 (centres unmarked) [Compound 389, 4-FLUORO-N-(5-NITRO-INDAN-2-YL)-BENZAMIDE] |  |
|  | 148 °C | CC(=O)c1ccc2c(c1)CC(NC(=O)c1ccc(F)cc1)C2 (centres unmarked) [Compound 399, N-(5-ACETYL-INDAN-2-YL)-4-FLUORO-BENZAMIDE] |  |
| 0.8 µM |  | Cc1ccc(C(=O)NC2Cc3ccccc3C2)cc1C [Compound 29, 3,4-DIMETHYL-N-INDAN-2-YL-BENZAMIDE] | 3.8 |
| 22 µM |  | Cc1c(C(=O)NC2Cc3ccccc3C2)cnn1-c1ccc(Cl)cc1 [Compound 341, 1-(4-CHLORO-PHENYL)-5-METHYL-1H-PYRAZOLE-4-CARBOXYLIC ACID INDAN-2-YLAMIDE] | 2.5 |
|  | 193 °C | O=C(NC1Cc2ccc(-c3ccc(F)cc3)cc2C1)c1ccc(F)cc1 (centres unmarked) [Compound 398A, 4-FLUORO-N-[5-(4-FLUOROPHENYL)-INDAN-2-YL]-BENZAMIDE] |  |
| 8 µM |  | CCCC(=O)Nc1cccc(C(=O)NC2Cc3ccccc3C2)c1 [Compound 375, 3-BUTYRYLAMINO-N-INDAN-2-YL-BENZAMIDE] | 2.3 |
| 9.6 µM |  | CS(=O)(=O)c1csc(C(=O)NC2Cc3ccccc3C2)c1Cl [Compound 321, 3-CHLORO-4-METHANESULFONYL-THIOPHENE-2-CARBOXYLIC ACID INDAN-2-YLAMIDE] | 2.5 |
| 27 µM |  | O=C(NC1Cc2ccccc2C1)c1cccc(F)c1F [Compound 302, 2,3-DIFLUORO-N-INDAN-2-YL-BENZAMIDE] | 2.8 |
| 0.14 µM | 147.5 °C | O=C(NC1Cc2ccccc2C1)c1ccc2c(c1)OC(F)(F)O2 [Compound 66, 2,2-DIFLUORO-BENZO[1,3]DIOXOL-5-CARBOXYLIC ACID INDAN-2-YLAMIDE] | 2.7 |
| 14 µM |  | O=C(NC1Cc2ccccc2C1)c1cccc2ccccc12 [Compound 294, NAPHTHALENE-1-CARBOXYLIC ACID INDAN-2-YLAMIDE] | 2.2 |
| 0.25 µM |  | Cc1sccc1C(=O)NC1Cc2ccccc2C1 [Compound 365, 2-METHYL-THIOPHENE-3-CARBOXYLIC ACID INDAN-2-YLAMIDE] | 3 |
| 1.7 µM |  | Cc1ccc(C(=O)NC2Cc3ccccc3C2)cc1Cl [Compound 34, 3-CHLORO-4-METHYL-N-INDAN-2-YL-BENZAMIDE] | 3.4 |
| 0.58 µM |  | Cc1cccc(C(=O)NC2Cc3ccccc3C2)c1Cl [Compound 264, 2-CHLORO-N-INDAN-2-YL-3-METHYL-BENZAMIDE] | 2.9 |
| 0.183 µM |  | CC(C)S(=O)(=O)c1csc(C(=O)NC2Cc3ccccc3C2)c1Cl [Compound 265, 3-CHLORO-4-(PROPANE-2-SULFONYL)-THIOPHENE-2-CARBOXYLIC ACID INDAN-2-YLAMIDE] | 2.7 |
| 3 µM |  | O=C(NC1Cc2ccc(F)cc2C1)c1ccc(F)cc1 (centres unmarked) [Compound 4, 4-FLUORO-N-(5-FLUORO-INDAN-2-YL)-BENZAMIDE] | 2.95 |
| 16 µM |  | O=C(NC1Cc2ccccc2C1)c1ccc(Cl)nc1Cl [Compound 203, 2,6-DICHLORO-N-INDAN-2-YL-NICOTINAMIDE] | 2.7 |
| 0.9 µM |  | CCOc1ccc(C(=O)NC2Cc3ccccc3C2)cc1 [Compound 26, 4-ETHOXY-N-INDAN-2-YL-BENZAMIDE] | 3.8 |
| 37 µM |  | CCc1sccc1C(=O)NC1Cc2ccccc2C1 [Compound 366, 2-ETHYL-THIOPHENE-3-CARBOXYLIC ACID INDAN-2-YLAMIDE] | 2.5 |
| 5 µM |  | CCOc1ccc(C(=O)NC2Cc3ccccc3C2)c(O)c1 [Compound 23, 4-ETHOXY-2-HYDROXY-N-INDAN-2-YL-BENZAMIDE] | 2.2 |
| 21 µM |  | Cc1c(C(=O)NC2Cc3ccccc3C2)cccc1C(F)(F)F [Compound 361, N-INDAN-2-YL-2-METHYL-3-TRIFLUOROMETHYL-BENZAMIDE] | 2.5 |
| 8.9 µM |  | O=C(NC1Cc2cccc(C(F)(F)F)c2C1)c1ccc(F)cc1 (centres unmarked) [Compound 439, 4-FLUORO-N-(4-TRIFLUOROMETHYL-INDAN-2-YL)-BENZAMIDE] | 2.6 |

The remaining lines, values behind:

| Structure (SMILES) | EC50 (eNOS promoter) | melting point | maximal fold induction (eNOS promoter) |
| --- | --- | --- | --- |
| COc1cc2c(cc1OC)CC(NC(=O)c1ccc(F)cc1)C2 [Compound 3, 4-FLUORO-N-(5,6-DIMETHOXY-INDAN-2-YL)-BENZAMIDE] |  | 160 °C |  |
| CC(O)c1ccc2c(c1)CC(NC(=O)c1ccc(F)cc1)C2 (centres unmarked) [Compound 402, 4-FLUORO-N-[5-(1-HYDROXY-ETHYL)-INDAN-2-YL]-BENZAMIDE] |  | 135 °C |  |
| O=C(NC1Cc2ccccc2C1)c1ccc(OCc2ccccc2)cc1 [Compound 40, 4-BENZYLOXY-N-INDAN-2-YL-BENZAMIDE] |  | 158.5 °C |  |
| O=C(NC1Cc2ccccc2C1)c1ccc(Br)cc1 [Compound 289, 4-BROMO-N-INDAN-2-YL-BENZAMIDE] | 0.142 µM |  | 2.6 |
| O=C(NC1Cc2ccccc2C1)c1ccc(SC(F)(F)F)cc1 [Compound 246, N-INDAN-2-YL-4-TRIFLUOROMETHYLSULFANYL-BENZAMIDE] | 0.67 µM |  | 2.5 |
| CCCCCc1ccc(C(=O)NC2Cc3ccccc3C2)cc1 [Compound 293, N-INDAN-2-YL-4-PENTYL-BENZAMIDE] | 14 µM |  | 1.7 |
| CCCCOc1ccc(C(=O)NC2Cc3ccccc3C2)cc1 [Compound 30, 4-BUTOXY-N-INDAN-2-YL-BENZAMIDE] | 3 µM |  | 2.94 |
| O=C(NC1Cc2ccccc2C1)c1ccc(Cl)nc1 [Compound 387, 6-CHLORO-N-INDAN-2-YL-NICOTINAMIDE] | 32 µM |  | 2.6 |
| O=C(NC1Cc2ccccc2C1)c1ccc(F)cc1Br [Compound 61, 2-BROMO-4-FLUORO-N-INDAN-2-YL-BENZAMIDE] | 0.7 µM |  | 2.6 |
| Cc1cc(C(=O)NC2Cc3ccccc3C2)c(C)n1Cc1ccncc1 [Compound 230, 2,5-DIMETHYL-1-PYRIDIN-4-YLMETHYL-1H-PYRROLE-3-CARBOXYLIC ACID INDAN-2-YLAMIDE] | 0.82 µM |  | 4 |
| CCOc1ccc(C(=O)NC2Cc3ccccc3C2)c(OC(C)=O)c1 [Compound 6, ACETIC ACID 5-ETHOXY-2-(INDAN-2-YL-CARBAMOYL)-PHENYL ESTER] | 1.2 µM |  | 2.55 |
| CC(=O)Nc1cccc(C(=O)NC2Cc3ccccc3C2)c1Cl [Compound 267, 3-ACETYLAMINO-2-CHLORO-N-INDAN-2-YL-BENZAMIDE] | 2.8 µM |  | 2.5 |
| O=C(NC1Cc2ccccc2C1)c1ccc2ccccc2c1 [Compound 295, NAPHTHALENE-2-CARBOXYLIC ACID INDAN-2-YLAMIDE] | 0.846 µM |  | 2.4 |
| O=C(NC1Cc2ccccc2C1)c1sc2cccc(Cl)c2c1Cl [Compound 329, 3,4-DICHLORO-BENZO[B]THIOPHENE-2-CARBOXYLIC ACID INDAN-2-YLAMIDE] | 2.2 µM |  | 1.5 |
| O=C(NC1Cc2ccc(O)cc2C1)c1ccc(F)cc1 (centres unmarked) [Compound 404, 4-FLUORO-N-(5-HYDROXY-INDAN-2-YL)-BENZAMIDE] | 12 µM | 199 °C | 3.5 |
| Cc1cc(C(=O)NC2Cc3ccccc3C2)ccc1Cl [Compound 27, 4-CHLORO-3-METHYL-N-INDAN-2-YL-BENZAMIDE] | 0.2 µM |  | 3.6 |
| O=C(NC1Cc2ccccc2C1)c1cccc(Oc2ccccc2)c1 [Compound 286, N-INDAN-2-YL-3-PHENOXY-BENZAMIDE] | 26 µM |  | 2.6 |
| O=C(NC1Cc2ccccc2C1)c1ccc(C(=O)C(F)(F)F)cc1 [Compound 256, N-INDAN-2-YL-4-(2,2,2-TRIFLUORO-ACETYL)-BENZAMIDE] | 11 µM |  | 2.5 |
